A short description of data set [1]: Apparent permeability from basolateral to apical side in human Caco-2 cells. Type of data set: ADME, cell-based. A general note: Caco-2 monolayers are a common model of the intestinal barrier.
A short description of data set [2]: Oral bioavailability in rat. Type of data set: ADME, organism-based. Particulars: in vivo.
The nature of data set [3]: Lipophilicity, log D at pH 7.4. In kind it is physicochemical. As to conditions: buffer.
The nature of data set [4]: Apparent permeability from apical to basolateral side in human Caco-2 cells. In kind it is ADME, cell-based.

Broadly, the Papp B→A is the apparent permeability from the basolateral to the apical side of a cell layer. What is called bioavailability is dose-corrected exposure relative to a reference, in per cent. In general, logD refers to the decadic logarithm of the distribution of all forms, ionised or not, between an organic phase and buffer at a given pH. Low readings indicate a more hydrophilic compound, high ones a more lipophilic compound. As usually defined, the Papp A→B is the apparent permeability from the apical to the basolateral side of a cell layer. As for `COc1ccc(CC(C)(C)NC[C@H](O)c2cc(O)cc3c2OCC(=O)N3)cc1` [OLODATEROL], the Papp B→A in data set [1] worked out at 9 ×10⁻⁶ cm/s. This compound displayed a bioavailability in data set [2] of 3%. In data set [3], this compound returned a logD of 1.2. The Papp A→B in data set [4] is 0.35 ×10⁻⁶ cm/s.

These data come from ChEMBL document CHEMBL1156887, “Discovery of olodaterol, a novel inhaled beta2-adrenoceptor agonist with a 24 h bronchodilatory efficacy” (Bioorg Med Chem Lett, 2010).
